# Data taken from patent US20200392107A1, “CYCLIC AMINE DERIVATIVE AND MEDICAL USE THEREOF” (Toray Industries, Inc., priority 2018, published 2020).
# Experiments:
# [1] = target: T1, RORγ-LBD (GST-fused ligand-binding domain of RORγ) / coactivator TRAP220/DRIP-2 (Homo sapiens, UniProt P51449); assay: Inhibitory effect on RORγ-coactivator binding (LanthaScreen TR-FRET RORγ Coactivator Assay); assay type: biochemical; details: at 33 μmol/L of the test compound; read-out: RORγ-coactivator binding inhibition rate (%)
# T1 construct: purchased Invitrogen
# T1 sequence (P51449 269-508 limits assumed): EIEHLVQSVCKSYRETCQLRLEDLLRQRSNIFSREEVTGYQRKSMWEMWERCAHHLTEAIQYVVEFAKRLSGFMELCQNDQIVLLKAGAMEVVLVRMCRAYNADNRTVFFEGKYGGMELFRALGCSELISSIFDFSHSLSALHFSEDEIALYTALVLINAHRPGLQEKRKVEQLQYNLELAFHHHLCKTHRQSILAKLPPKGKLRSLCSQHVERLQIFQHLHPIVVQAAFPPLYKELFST
# Description: The inhibitory effect of the cyclic amine derivative (I) or a pharmacologically acceptable salt thereof on the binding between a ligand-binding domain of RORγ (hereinafter referred to as RORγ-LBD) and a coactivator was evaluated using Invitrogen's LanthaScreen™ TR-FRET Retinoid-Related Orphan Receptor (ROR) gamma Coactivator Assay kit utilizing time-resolved fluorescence energy transfer (TR-FRET).
# A test compound was dissolved in DMSO and diluted with TR-FRET Coregulator Buffer D (Invitrogen) containing 5 mmol/L of DTT to have a final DMSO concentration of 1% before use. To each well of a 384-well black plate (Corning Inc.), 4 nmol/L of GST-fused RORγ-LBD (Invitrogen) diluted with the buffer mentioned above and the test compound were added. A well without addition of the test compound and without addition of GST-fused RORγ-LBD (background) and a well without addition of the test compound and with addition of GST-fused RORγ-LBD (control) were prepared. Next, 150 nmol/L of fluorescein-labeled TRAP220/DRIP-2 (Invitrogen) diluted with the buffer mentioned above and 32 nmol/L of terbium-labeled anti-GST antibody (Invitrogen) were added to each well. After incubating the plate at room temperature for 16 to 24 hours, the fluorescence at 495 nm and 520 nm when excited at 320 nm was measured for each well and the ratio (fluorescence value at 520 nm/fluorescence value at 495 nm) was calculated.
# The fold change with addition of the test compound (ratio with addition of the test compound/ratio of the background), the fold change of the control (ratio of the control/ratio of the background), and the fold change of the background (ratio of the background/ratio of the background) were calculated, and then the inhibition rate of binding between RORγ-LBD and a coactivator (hereinafter referred to as RORγ-coactivator binding inhibition rate) (%) was calculated from Formula (1):
# RORγ-coactivator binding inhibition rate (%)=(1−((Fold change with addition of the test compound)−(Fold change of the background))/((Fold change of the control)−(Fold change of the background)))×100 (1).
# [2] = tested on: imiquimod-induced mouse psoriasis model; assay: Imiquimod-induced mouse psoriasis model; assay type: in vivo; details: 10 mg/kg orally once daily for 5 days (3 to 7 days after induction); BALB/c mice; vs vehicle, P<0.05
# Description: Using increase in the ear thickness as an index of exacerbation of symptoms, the effect of the cyclic amine derivative (I) or a pharmacologically acceptable salt thereof in an imiquimod-induced mouse psoriasis model was evaluated. The imiquimod-induced mouse psoriasis model was prepared by a partially modified method by Schaper et al. (The Journal of Dermatological Science, 2013, Vol. 71, No. 1, p. 29-36).
# BALB/c mice (male, 7 weeks old) (Charles River Laboratories Japan, Inc.) were used at 8 to 9 weeks old after preliminary breeding. To induce psoriasis-like symptoms, 5 mg each of BESELNA CREAM 5% was applied once daily to the outside of the right and left auricles of the mice for 8 days from the day of first administration of imiquimod (hereinafter referred to as induction day) to 7 days after induction (dose of imiquimod, 0.5 mg/body/day).
# A test compound at a dose of 10 mg/kg was administered to the mice once daily for 5 days from 3 days after induction to 7 days after induction. As the test compound, the compound of Example 1, the compound of Example 4, and the compound of Example 9 were used. The compound of Example 1, the compound of Example 4, and the compound of Example 9 were respectively suspended in a 0.5 w/v % methylcellulose solution and orally administered. The group in which the compound of Example 1 was administered to mice was defined as the Example-1 compound administration group, the group in which the compound of Example 4 was administered was defined as the Example-4 compound administration group, and the group in which the compound of Example 9 was administered was defined as the Example-9 compound administration group. In the vehicle administration group, a vehicle of each test compound (0.5 w/v % methylcellulose solution) was similarly administered.
# The right and left ear thickness before administration of imiquimod (before induction) on the induction day and the right and left ear thickness on the 8th day after induction were measured with a digital micrometer (Mitutoyo Corporation). […]
SMILES,inhibition at 33 µM [1] [%],"increase in the ear thickness (change in the ear thickness, 8th day after induction) [2]"
"CC(=O)N1CCCC[C@@H]1C(=O)Nc1cc(Cl)c2c(c1)CCCN2Cc1ccc(C(F)(F)F)cc1 [Example 1, (R)-1-acetyl-N-(8-chloro-1-(4-(trifluoromethyl)benzyl)-1,2,3,4-tetrahydroquinolin-6-yl)piperidine-2-carboxamide]",96.9,statistically significantly suppressed
"CC(=O)N1CCCC[C@@H]1C(=O)Nc1cc(Cl)c2c(c1)CCN2Cc1ccc(C(F)(F)F)cc1 [Example 4, (R)-1-acetyl-N-(7-chloro-1-(4-(trifluoromethyl)benzyl)indolin-5-yl)piperidine-2-carboxamide]",96.7,statistically significantly suppressed
"CC(=O)N1CCCC[C@@H]1C(=O)Nc1cc(Cl)c2c(c1)CCN2C[C@H]1CC[C@H](C(F)(F)F)CC1 [Example 9, (R)-1-acetyl-N-(7-chloro-1-((trans-4-(trifluoromethyl)cyclo-hexyl)methyl)indolin-5-yl)piperidine-2-carboxamide]",96.8,statistically significantly suppressed
